Assay results taken from patent US20050004200A1, “Pyrazole compounds as integrin receptor antagonists derivatives” (Pharmacia Corporation, priority 2002, published 2005).

Assay: not given
Conditions: in vivo

Rat AUC-PO/dose [µg·h/mL/mg/kg] | Compound
2 | 3-(1,3-benzodioxol-5-yl)-4-[5-[2-(1-methyl-1,2,3,4-tetrahydropyrido[2,3-b]pyrazin-6-yl)ethoxy]-1-(2,2,2-trifluoroethyl)-1H-pyrazol-3-yl]butanoic acid [Example 27]

Assay: plasma level upon oral dosing (AUC-PO)
Conditions: plasma AUC normalised to dose

Compound | Rat AUC-PO/dose [µg·h/mL/mg/kg]
Cn1nc(CC(CC(=O)O)c2cnc(-c3ccc(Cl)cc3)s2)cc1OCCc1ccc2c(n1)NCCC2 (centres unmarked) [Example 2, 3-[2-(4-chlorophenyl)-1,3-thiazol-5-yl]-4-{1-methyl-5-[2-(5,6,7,8-tetrahydro-1,8-naphthyridin-2-yl)ethoxy]-1H-pyrazol-3-yl}butanoic acid] | 1
Cn1nc(CC(CC(=O)O)c2ccc3c(c2)OCO3)cc1SCCc1ccc2c(n1)NCCC2 (centres unmarked) [Example 3, 3-(1,3-benzodioxol-5-yl)-4-(1-methyl-5-{[2-(5,6,7,8-tetrahydro-1,8-naphthyridin-2-yl)ethyl]thio}-1H-pyrazol-3-yl)butanoic acid] | 2.2
Cn1nc(CC(CC(=O)O)c2ccc3c(c2)OCO3)cc1S(=O)(=O)CCc1ccc2c(n1)NCCC2 (centres unmarked) [Example 4, 3-(1,3-benzodioxol-5-yl)-4-(1-methyl-5-{[2-(5,6,7,8-tetrahydro-1,8-naphthyridin-2-yl)ethyl]sulfonyl}-1H-pyrazol-3-yl)butanoic acid] | 0.7
COc1ccc(C(CC(=O)O)Cc2cc(OCCc3ccc4c(n3)NCCN4C)n(C)n2)cn1 (centres unmarked) [Example 7, 3-(6-methoxypyridin-3-yl)-4-{1-methyl-5-[2-(1-methyl-1,2,3,4-tetrahydropyrido[2,3-b]pyrazin-6-yl)ethoxy]-1H-pyrazol-3-yl}butanoic acid] | 0.8
Cl.Cn1nc(CC(CC(=O)O)c2cnc(C3CC3)s2)cc1OCCc1ccc2c(n1)NCCC2 (centres unmarked) [Example 6, 3-(2-cyclopropyl-1,3-thiazol-5-yl)-4-{1-methyl-5-[2-(5,6,7,8-tetrahydro-1,8-naphthyridin-2-yl)ethoxy]-1H-pyrazol-3-yl}butanoic acid] | 1.1
CNc1cccc(CCOc2cc(CC(CC(=O)O)c3ccc4c(c3)OCO4)nn2C)n1 (centres unmarked) [Example 8, 3-(1,3-benzodioxol-5-yl)-4-(1-methyl-5-{2-[6-(methylamino)pyridin-2-yl]ethoxy}-1H-pyrazol-3-yl)butanoic acid] | 0.7
O=C(O)CC(Cc1cc(OCCc2ccc3c(n2)NCCC3)n(-c2ccccc2)n1)c1ccc2c(c1)OCO2 (centres unmarked) [Example 21, 3-(1,3-benzodioxol-5-yl)-4-{1-phenyl-5-[2-(5,6,7,8-tetrahydro-1,8-naphthyridin-2-yl)ethoxy]-1H-pyrazol-3-yl}butanoic acid] | 1.7
Cn1nc(CC(CC(=O)O)c2ccc3c(c2)OCO3)cc1OCCc1ccc2c(n1)NCCC2 (centres unmarked) [Example 1, 3-(1,3-benzodioxol-5-yl)-4-{1-methyl-5-[2-(5,6,7,8-tetrahydro-1,8-naphthyridin-2-yl)ethoxy]-1H-pyrazol-3-yl}butanoic acid] | 0.9
COc1ccc(C(CC(=O)O)Cc2cc(OCCc3ccc4c(n3)NCCC4)n(CC(F)(F)F)n2)cn1 (centres unmarked) [Example 23, 3-(6-methoxypyridin-3-yl)-4-[5-[2-(5,6,7,8-tetrahydro-1,8-naphthyridin-2-yl)ethoxy]-1-(2,2,2-trifluoroethyl)-1H-pyrazol-3-yl]butanoic acid] | 0.8

Next, values leading:

Rat AUC-PO/dose [µg·h/mL/mg/kg] | Compound
2.2 | Cc1cc(CCOc2cc(CC(CC(=O)O)c3ccc4c(c3)OCO4)nn2C)nc2c1CCCN2 (centres unmarked) [Example 32, 3-(1,3-Benzodioxol-5-yl)-4-{1-methyl-5-[2-(4-methyl-5,6,7,8-tetrahydro-1,8-naphthyridin-2-yl)ethoxy]-1H-pyrazol-3-yl}butanoic acid]
0.4 | Cn1nc(CC(CC(=O)O)c2ccc3c(c2)OCO3)cc1OCCc1ccc2c(n1)NCCN2 (centres unmarked) [Example 25, 3-(1,3-benzodioxol-5-yl)-4-{1-methyl-5-[2-(1,2,3,4-tetrahydropyrido[2,3-b]pyrazin-6-yl)ethoxy]-1H-pyrazol-3-yl}butanoic acid]
1.9 | CN1CCNc2nc(CCOc3cc(CC(CC(=O)O)c4ccc5c(c4)OCO5)nn3C)ccc21 (centres unmarked) [Example 31, 3-(1,3-benzodioxol-5-yl)-4-{1-methyl-5-[2-(1-methyl-1,2,3,4-tetrahydropyrido[2,3-b]pyrazin-6-yl)ethoxy]-1H-pyrazol-3-yl}butanoic acid]
0.9 | O=C(O)CC(Cc1cc(OCCc2ccc3c(n2)NCCN3)n(CC(F)(F)F)n1)c1ccc2c(c1)OCO2 (centres unmarked) [Example 26, 3-(1,3-benzodioxol-5-yl)-4-[5-[2-(1,2,3,4-tetrahydropyrido[2,3-b]pyrazin-6-yl)ethoxy]-1-(2,2,2-trifluoroethyl)-1H-pyrazol-3-yl]butanoic acid]
